From patent publication US20200230205A1, “COMPOSITIONS AND METHODS FOR TREATING MYELIN DISORDERS” (CASE WESTERN RESERVE UNIVERSITY, priority 2017, published 2020)

System: MOG35-55-induced EAE mice
Test: MOG35-55-induced EAE mouse model, daily intraperitoneal ISP
Format: in vivo
Description: For induction of EAE, C57BL6/J female mice at 10-week-old of age were immunized with MOG35-55 together with complete Freund's adjuvant emulsion (Hooke Laboratories, MOG35-55 EAE Induction kit, EK-2110) according to the manufacturers' instruction. Using the EAE Induction Kit result in 98% successful disease induction. All EAE animals were monitored daily and scored using a clinical scale from 0 to 5 (0: no abnormality; 1: limp tail; 2: limp tail and hind legs weakness; 3: limp tail and complete paralysis of hind legs; 4, hind leg and partial front leg paralysis; 5: moribund. Once EAE mice scored for I or 3, they were randomly recruited into treatment group and vehicle group. For treatment group, 5-7 mice were given daily intraperitoneal injections of ISP (20 μg/day), or 5% DMSO in saline, 100 μl) for Vehicle group. Experiments were blinded and animals were scored daily. For ISP Onset: ISP treatment was given at onset of sickness scored by clinical scale. For ISP Peak: ISP treatment was given at peak of sickness scored by clinical scale
LFB staining was performed according to the manufacturer's instruction (#26681, Electron Microscopy Sciences). For spinal cord sections, 20 μm coronal sections were incubated in LFB solution in 56° C. overnight and then rinsed sequentially with 95% alcohol and distilled water. The sections were then in 0.1% lithium carbonate solution and followed dehydration with a series of gradated ethanol, cleared with Histoclear and mounted. A set of serial matched sections were imaged and analyzed. Images (5 to 6 sections/animal) were captured under light microscope. The demyelinated areas (lack of LFB staining) were quantified using ImageJ software. For EAE sections, demyelinated areas were measured and represented as a percentage of total area of spinal cord. For sections of LPC model, lesion volumes were calculated by the lesion area from serial sections throughout the entire lesion based on the equation for volume of cylinder (V=lesion area×length of lesion).
Mice were anesthetized with avertin and perfusion with PBS and 4% paraformaldehyde (PFA). Brain or spinal cord were dissected and post-fixed in 4% PFA overnight at 4° C. and equilibrated in 20% sucrose. 20 μm-thick sections were pretreated with Reveal Decloaker Solution (RV 1000M, Biocare Medical) for antigen retrieval according to the manufacturer's instructions. After blocking, sections were incubated with primary antibodies overnight at 4° C. and followed by appropriate secondary antibodies conjugated with Alexa fluorescence 488 or 594. The following primary antibodies were used: MBP (SMI-99P, Covance, 1:300), NeuF200 (N4142, Sigma, 1:250), CS-56 (C8035, Sigma, 1:250), CAT301 (MAB5284, Millipore, 1:250), versican (AB 1032, Millipore, 1:250), Iba1 (019-19741, WAKO, 1:250), GFAP (MAB360, Millipore, 1:250), Olig2 (AB9610, Millipore, 1:250), CC1 (OP80, Millipore, 1:250). For each staining, at least 3 individual animals/group were examined and images were captured with a Leica DFC500 fluorescence microscope. Staining was quantified using Image J software (US National Instisutes of Health, USA). Fluorescence intensity was calculated as percentages of the mean value of the naïve controls.
For ultrastructural analyses of myelination, anesthetized animals were perfused with 2% glutaraldehyde/4% paraformaldehyde in 0.1 M sodium carcodylate buffer, PH7.4 (Electron Microscopy Sciences). Lesioned areas of the LPC or EAE-induced spinal cords from ISP-treated or control animals were dissected and post-fixed in 1% OsO4 for 2 hrs. Coronal sections ([…]) of spinal cord or brain containing corpus callosum were prepared (Leica, Vibratome), dehydrated, stained with saturated uranyl acetate and embedded in a Poly/Bed812 resin (Polysciences Inc.). The 1 μm-thick sections were cut and stained with toluidine blue, and matched areas were selected for EM analysis. […]

[1] = 41 days following EAE induction

## GRKKRRQRRRCDMAEHMERLKANDSLKLSQEYESI [ISP]
18 days following EAE induction
  demyelination baseline (LFB) vs vehicle: not significantly different
[1]
  GFAP (reactive astrocytes) immunofluorescence: significant decreases
  Iba1 (microglia/macrophages) immunofluorescence: significant decreases
EAE ISP Onset group, ISP 20 μg/mouse daily i.p., days of ISP administration
  time until functional recovery was initially observed: 10 to 12 days
EAE ISP Onset group, several animals, after 20-22 days of ISP (~33 days post immunization)
  clinical score: 0.5-1
EAE ISP Peak group, ISP started at peak of sickness
  clinical score: improved significantly
EAE animals, 41 days
  percentage of CC1+ oligodendrocytes in lesions: significantly enhanced
EAE-lesioned spinal cord vs vehicle
  number of myelinated/remyelinated axons, electron microscopy: increase of myelinated/remyelinated axons
ISP for 41 days vs control EAE animals
  MBP immunostaining: denser
Onset treated animals, spinal cord
  lesion size, LFB myelin staining: especially reduced
Spinal cord of EAE mice
  Arginase-1 (M2 microglia marker) immunostaining: increased M2 microglia
  iNOS (M microglia marker) immunostaining: decreased M microglia
Spinal cord tissue of EAE mice
  MBP expression, western blot: restoration of MBP expression
Thoracic spinal cord, 41 days post-induction
  CSPG (Cat301, aggrecan) immunostaining: markedly decreased
